The nature of experiment [1]: Neuroprotective activity against 0.1 uM amyloid beta 42-induced toxicity in rat PC12 cells assessed as cell viability at 10 uM after 24 hrs by MTT assay. In kind it is functional, PC-12.
Experiment [2] in a line: Neuroprotective activity against 0.1 uM amyloid beta 42-induced toxicity in rat PC12 cells assessed as cell viability after 24 hrs by MTT assay. In kind it is functional, cell-based. The settings on record: PC-12, 24 h. Background: Tetrazolium assays rely on reduction of a dye to a coloured formazan, in cell work by metabolically active cells.
Experiment [3] is described as follows: Neuroprotective activity against 0.1 uM amyloid beta 42-induced toxicity in rat PC12 cells assessed as cell viability at 50 uM after 24 hrs by MTT assay. The format is functional, PC-12.

The structures appear in SMILES notation.

For `O=c1cc(-c2ccc(Oc3c(O)cc4oc(-c5ccc(O)cc5)cc(=O)c4c3O)cc2)oc2cc(O)cc(O)c12` [HINOKIFLAVONE], the Activity in experiment [1] turned out to be 38.7%. The term EC50 denotes the concentration needed to bring the measured effect to its halfway point. In the case of `COc1ccc(-c2cc(=O)c3c(O)cc(OC)c(-c4cc(-c5cc(=O)c6c(O)cc(O)cc6o5)ccc4OC)c3o2)cc1` [KAYAFLAVONE], in experiment [2], the EC50 was found to be 5.29 µM. In addition, the results for the Activity in experiment [1] and in experiment [3] were 80.5% and 100%, respectively.

Consider `COc1cc(O)c2c(=O)cc(-c3ccc(O)cc3)oc2c1-c1cc(-c2cc(=O)c3c(O)cc(O)cc3o2)ccc1O` [SOTETSUFLAVONE], for which the Activity in experiment [1] turned out to be 34.2%.

Turning to `COc1ccc(-c2cc(=O)c3c(O)cc(O)c(-c4cc(-c5cc(=O)c6c(O)cc(O)cc6o5)ccc4OC)c3o2)cc1` [ISOGINKGETIN], the EC50 in experiment [2] amounted to 5.18 µM. Moreover, the Activity in experiment [1] was determined as 83.1%. Regarding `O=c1cc(-c2ccc(O)cc2)oc2cc(O)cc(O)c12` [APIGENIN], the Activity in experiment [1] is reported as 41%. Turning to `COc1ccc(-c2cc(=O)c3c(O)cc(OC)c(-c4cc(-c5cc(=O)c6c(O)cc(OC)cc6o5)ccc4O)c3o2)cc1` [HEVEAFLAVONE], the Activity in experiment [1] is on record as 45.1%. For the molecule `O=c1cc(-c2ccc(O)c(-c3c(O)cc(O)c4c(=O)cc(-c5ccc(O)cc5)oc34)c2)oc2cc(O)cc(O)c12` [AMENTOFLAVONE], in experiment [1], the Activity is recorded as 37.6%. Consider `COc1ccc(-c2cc(=O)c3c(O)cc(OC)c(-c4c(OC)cc(O)c5c(=O)cc(-c6ccc(OC)cc6)oc45)c3o2)cc1`, for which, in experiment [1], the Activity came out at 46.7%. As to `COc1ccc(-c2cc(=O)c3c(O)cc(OC)c(-c4cc(-c5cc(=O)c6c(O)cc(O)cc6o5)ccc4O)c3o2)cc1` [7'',4'''-dimethylamentoflavone], in experiment [1], the Activity amounted to 55.3%. Take `O=c1cc(-c2ccc(O)cc2)oc2c(-c3c(O)cc(O)c4c(=O)cc(-c5ccc(O)cc5)oc34)c(O)cc(O)c12` [CUPRESSUFLAVONE]: the Activity in experiment [1] is listed as 31.7%. On the same count and under the same terms, then `COc1cc2oc(-c3ccc(O)cc3)cc(=O)c2c(O)c1-c1cc(-c2cc(=O)c3c(O)cc(O)cc3o2)ccc1O`, with 38.5%; and `COc1cc(O)c2c(=O)cc(-c3ccc(O)c(-c4c(O)cc(O)c5c(=O)cc(-c6ccc(O)cc6)oc45)c3)oc2c1` [SEQUOIAFLAVONE], with 39.3%.

As to `COc1cc(O)c2c(=O)cc(-c3ccc(Oc4c(OC)cc5oc(-c6ccc(O)cc6)cc(=O)c5c4O)cc3)oc2c1`, in experiment [1], the Activity is on record as 55.5%.

`COc1ccc(-c2cc(=O)c3c(O)cc(O)cc3o2)cc1-c1c(O)cc(O)c2c(=O)cc(-c3ccc(O)cc3)oc12` [BILOBETIN]: the Activity in experiment [1] was 44.7%. Take `O=C(O[C@@H]1Cc2c(O)cc(O)cc2O[C@@H]1c1cc(O)c(O)c(O)c1)c1cc(O)c(O)c(O)c1` [EPIGALOCATECHIN GALLATE]: the Activity in experiment [1] stood at 49.5%. The same measure, in the same setting: for `COc1cc(O)c2c(=O)cc(-c3ccc(OC)c(-c4c(O)cc(O)c5c(=O)cc(-c6ccc(O)cc6)oc45)c3)oc2c1` [GINKGETIN] the value was 59.8%; for `COc1ccc(-c2cc(=O)c3c(O)cc(O)c(-c4cc(-c5cc(=O)c6c(O)cc(O)cc6o5)ccc4O)c3o2)cc1` [PODOCARPUSFLAVONE A], 49.3%; for `COc1cc(O)c2c(=O)cc(-c3ccc(O)c(-c4c(OC)cc(O)c5c(=O)cc(-c6ccc(O)cc6)oc45)c3)oc2c1`, 52.6%.

With `COc1ccc(-c2cc(=O)c3c(O)cc(OC)c(-c4cc(-c5cc(=O)c6c(O)cc(OC)cc6o5)ccc4OC)c3o2)cc1`, in experiment [1], the Activity is given as 49.9%. On to `COc1ccc(-c2cc(=O)c3c(O)cc(O)c(-c4cc(-c5cc(=O)c6c(O)cc(OC)cc6o5)ccc4O)c3o2)cc1` [PODOCARPUSFLAVONE B], for which the EC50 in experiment [2] stood at 10.8 µM. For the same molecule, the Activity in experiment [1] is 76.4%.

Take `COc1ccc(-c2cc(=O)c3c(O)cc(O)c(-c4cc(-c5cc(=O)c6c(O)cc(OC)cc6o5)ccc4OC)c3o2)cc1` [SCIADOPITISIN]: the EC50 in experiment [2] came to 9.84 µM. Also, the Activity in experiment [1] amounted to 83.1%; in experiment [3] it was 100%.

On to `COc1cc(O)c2c(=O)cc(-c3ccc(OC)c(-c4c(OC)cc(O)c5c(=O)cc(-c6ccc(O)cc6)oc45)c3)oc2c1`, for which the Activity in experiment [1] came out at 65.3%. Take `COc1ccc(-c2cc(=O)c3c(O)cc(O)cc3o2)cc1-c1c(OC)cc(O)c2c(=O)cc(-c3ccc(O)cc3)oc12`: in experiment [1], the Activity is 56.5%. Regarding `COc1cc2oc(-c3ccc(O)cc3)cc(=O)c2c(O)c1Oc1ccc(-c2cc(=O)c3c(O)cc(O)cc3o2)cc1`, the Activity in experiment [1] is 65.7%.

(Values after ChEMBL document CHEMBL3588767, “Inhibitory activities of biflavonoids against amyloid-β peptide 42 cytotoxicity in PC-12 cells” (Bioorg Med Chem Lett, 2015).)
